Measurements as given in EP0440324B1, “Substituted beta-diketones and their use in the treatment of inflammatory bowel disease” (ORION-YHTYMÄ OY, priority 1990, dated 1991).

Test system: TNB-induced chronic colitis
Test: TNB-induced chronic colitis in the rat (damage score of the colon)
Format: in vivo, Wistar rats
Conditions: damage score of chronic inflammation induced by TNB, colons scored 96 h after TNB
Method: 20 mg of TNB (2,4,6-trinitrobenzenesulfonic acid) in 50 % ethanol was administered into the lumen of the colon via a rubber catheter inserted rectally to Wistar rats. The test compounds were given rectally 1 h prior and 24, 48, 72 and 95 h after TNB. The rats were sacrificed 96 h after TNB and their colons were scored according to occurence of ulcers and inflammation. The number of animals in each group was at least 8. 5-ASA (5-aminosalicylic acid), a clinically used drug for the treatment of IBD was used as a reference compound.

[1] = dose 30 mg/kg rectally 1 h prior and 24, 48, 72 and 95 h after TNB

Molecule | % inhibition against control [1] [%] | also measured
3-[3-(4-Methoxyphenyl)propenylene]-2,4-pentanedione [Example 11] | 32 | –
3-[(3,5-Dinitro-4-hydroxyphenyl)methylene]-2,4-pentanedione. [Example 9] | 40 | –
3-[(5-Nitrothienyl)methylene]-2,4-pentanedione [Example 13] | 58 | –
Nc1ccc(O)c(C(=O)O)c1 [5-ASA, 5-aminosalicylic acid, reference compound] | – | inhibition in vivo at 100 mg/kg (Rattus norvegicus, dose 100 mg/kg rectally 1 h prior and 24, 48, 72 and 95 h after TNB, read-out: % inhibition against control): 24%
CC(=O)C(=Cc1ccc(C(=O)NCCc2ccccc2)cc1)C(C)=O [Test compound 9, 3-[(4-(N-phenethyl)carboxamido-phenyl)methylene]-2,4-pentanedione] | – | inhibition in vivo at 10 mg/kg (Rattus norvegicus, dose 10 mg/kg rectally 1 h prior and 24, 48, 72 and 95 h after TNB, read-out: % inhibition against control): 60%; inhibition in vivo at 30 mg/kg (Rattus norvegicus, dose 30 mg/kg rectally 1 h prior and 24, 48, 72 and 95 h after TNB, read-out: % inhibition against control): 48%
